Laboratory results as given in patent US20230149507A1, “TREATMENT OF ALT CANCERS” (INSTITUTO DE MEDICINA MOLECULAR JOÃO LOBO ANTUNES, priority 2019, published 2023).

Columns and labels:
Type in all cases: cell-based, human
HeLa cells [1] = experiment: FACS cell cycle analysis of FANCM-depleted HeLa cells with added agents; settings: FANCM-depleted HeLa cells; hydroxyurea followed by block release
Protocol: When indicated, cells were incubated with 1 μM camptothecin (Sigma-Aldrich) for 3 hours, 0.2 mM hydroxyurea (Sigma-Aldrich) for 16 h, 20 μM BIBR 1532 (Merck Millipore) for 7 days, and 10 μM RO-3306 (Selleckchem) for 18 h. […] For fluorescence-activated cell sorting, cells were trypsinized and pelleted by centrifugation at 500 g at 4° C. for 5 min. Cell pellets were either left untreated for viability assays or fixed in 70% ethanol at −20° C. for 30 min and treated with 25 μg/ml RNaseA (Sigma-Aldrich) in 1×PBS at 37° C. for 20 min. Cells were then washed in 1×PBS and stained with 20 μg/ml propidium iodide (Sigma-Aldrich) in 1×PBS at 4° C. for 10 min. Flow cytometry was performed on a BD FACSCalibur or a BD Accuri C6 (BD Biosciences). Data were analyzed using FlowJo software.

HeLa cells [2] = experiment: Western blot of pS33 (RPA32 phosphorylated at serine 33); settings: FANCM-depleted HeLa cells
Protocol: HeLa cervical cancer, HT1080 fibrosarcoma, and HEK293 embryonic kidney cells were purchased from ATCC. […] HeLa, HT1080, HEK293, U2OS, and WI-38 VA13 cells were cultured in high glucose DMEM, GlutaMAX (Thermo Fisher Scientific) supplemented with 10% tetracycline-free fetal bovine serum (Pan BioTech) and 100 U/ml penicillin-streptomycin (Thermo Fisher Scientific). HuO9, Saos2, HOS and SKNAS cells were cultured in high glucose DMEM/F12, GlutaMAX (Thermo Fisher Scientific), supplemented with 10% tetracycline-free fetal bovine serum (Pan BioTech), 100 U/ml penicillin-streptomycin (Thermo Fisher Scientific) and non-essential amino acids (Thermo Fisher Scientific). Mycoplasma contaminations were tested using the VenorGeM Mycoplasma PCR Detection Kit (Minerva Biolabs) according to the manufacturer's instructions. When indicated, cells were incubated with 1 μM camptothecin (Sigma-Aldrich) for 3 hours, 0.2 mM hydroxyurea (Sigma-Aldrich) for 16 h, 20 μM BIBR 1532 (Merck Millipore) for 7 days, and 10 μM RO-3306 (Selleckchem) for 18 h. Cells were trypsinized and pelleted by centrifugation at 500 g at 4° C. for 5 min. […] Supernatant were recovered and protein concentrations were determined by Lowry assay using bovine serum albumin (BSA; Sigma-Aldrich) as standard. […]

[3] = test system: U-2 OS, GM847 and Saos-2 ALT cell lines; experiment: C-circle assay of cells treated with PIP-199; settings: 0.5 μM PIP-199 for 72 h vs DMSO
From the text: (a) Schematic of MM2-tamoxifen (40HT)-inducible ER fusion protein-mediated inhibition of the FANCM-BTR complex interaction. […] (c) Tukey boxplots of TIFs in U-2 OS cells expressing MM2-ER or FF>AA-ER fusion proteins in the presence or absence of 40HT. Out of 3 experiments, n=150 cells scored per treatment, **p<0.005, Mann-Whitney test. (d) Representative dot blots and quantitation of C-circle assays in U-2 OS cells expressing MM2-ER or FF>AA-ER fusion proteins in the presence or absence of 40HT. C-circles were normalized to non-induced control. Error bars represent mean±SEM from n 3 experiments, *p<0.05, one-sample t-test. (e) Representative colony formation assay of GM847 and HCT116 cells expressing the MM2-ER fusion protein in the presence or absence of 40HT (top panel). Quantitation of the surviving fraction of colonies for ALT (U-2 OS, GM847 and Saos-2) and telomerase-positive (HeLa and HCT116) cell lines expressing MM2-ER or FF>AA-ER fusion proteins (bottom panel). Colony counts were normalized to non-induced controls. […] (f) Representative dot blots and quantitation of C-circle assays from U-2 OS, GM847, Saos-2, HeLa and HCT116 cells treated with 0.5 μM PIP-199 or vehicle control (DMSO) for 72 h. […] (g) Quantitation of the surviving fraction of colonies from U-2 OS, GM847, Saos-2, HeLa and HCT116 cells treated with PIP-199. […]

[4] = test system: U-2 OS, GM847, Saos-2 (ALT), HeLa and HCT116 (telomerase-positive) cells; experiment: Clonogenic assay of cells treated with PIP-199
Protocol: (a) Quantitation of the surviving fraction of colonies from U-2 OS, GM847, Saos-2 (ALT), HeLa and HCT116 (telomerase-positive) cells treated with PIP-199 after 11 days. Colony counts were normalized to DMSO controls. Error bars represent mean±SEM from n=3 experiments, *p<0.05, n.s.=non-significant, Student's t-test.
Clonogenic assays were performed as described in Franken et al., 2006, with cells plated at 1,000 cells/10 cm dish with or without 200 nM 4-hydroxytamoxifen (Sigma Aldrich), which was replenished on days 4 and 7. For cells treated with PIP-199 (Aobious #AOB33732, CAS No: 622795-76-0), cells were plated at 300 cells/well in 6-well plates, and treated with 0-10 μM of drug in dimethyl sulfoxide (DMSO). Cells were left to grow for 11 days. Plates were washed with 1×PBS, then fixed and stained with 0.5% (w/v) crystal violet in 1 part acetic acid, 7 parts methanol for 2 h at room temperature. Plates were then washed with tap water and left to air dry. Colonies on each plate were counted and the plating efficiency and surviving fraction calculated.

U2OS interphase cells = experiment: Telomeric DNA FISH, number and area of telomeric foci, RO-3306 control; settings: siCt-transfected cells
Protocol: FIG. 17. FANCM depletion alters telomeric DNA in interphase U2OS cells. (A) Western blot analysis of FANCM protein levels in U2OS cells transfected and treated with RO-3306 as indicated. Cells were harvested 48 hours after transfection. POLD3, RAD51 and PML levels were also analyzed. Beta Actin and LMB1 serve as loading controls. (B) Quantifications of FACS profiles of cells as in A stained with PI. […] R: RO-3306. (C)) Quantifications of numbers of telomeric foci per nucleus in experiments as in A. Each dot represents an individual nucleus. A total of at least 300 nuclei from three independent experiments were analyzed for each sample. Bars and error bars are means and SDs. P values were calculated with a Mann-Whitney U test. (D) Area distribution of telomeric foci areas in experiments as in C. 3D images were sum projected and areas of individual nuclear FISH signals were measured using DAPI staining to identify nuclei (not shown). A total of at least 300 nuclei from three independent experiments were analyzed for each sample. Areas of telomeric foci (in pixels) are binned into 25 intervals of 5-pixel width (x axis; numbers indicate bin centers) and plotted against frequencies (y axis; %). […] (E) Quantification of cells with at least 5 Large (L) foci in experiments as in C. P values were calculated with a two-tailed Student's t-test. *P<0.05, **P<0.005, ***P<0.001, ****P<0.0001. […]

U2OS cells [5] = experiment: PML, RAD51, POLD3 localization at telomeres (IF/FISH), RO-3306 control; settings: RO-3306 treatment
Protocol: (§1) (A) Quantifications experiments for PML or RAD51 immunostaining combined with telomeric DNA FISH. POLD3 immunostaining combined with RAP1 immunostaining (green); and EdU detection combined with and telomeric DNA FISH. Experiments were performed on U2OS cells transfected with the indicated siRNAs and harvested 48 hours after transfection. Each dot represents an individual nucleus. A total of at least 300 nuclei from three independent experiments were analyzed for each sample. Bars and error bars are means and SDs. P values were calculated with a Mann-Whitney U test. ***P<0.001, ****P<0.0001.
Cells grown on coverslips were incubated in CSK buffer for 7 min on ice. All subsequent treatments were performed at room temperature. Cells were fixed with 4% formaldehyde (Sigma-Aldrich) in 1×PBS for 10 min, permeabilized with CSK buffer for 5 min, and incubated in blocking solution (0.5% BSA, 0.1% Tween-20 in 1×PBS) for 1 h. Coverslips were incubated in blocking solution containing primary antibodies for 1 h, washed three times with 0.1% Tween-20 in 1×PBS for 10 min each, and incubated with secondary antibodies diluted in blocking solution for 50 min. DNA was counterstained with 100 ng/ml DAPI in 1×PBS. For combined IF and DNA FISH, cells were again fixed with 4% formaldehyde in 1×PBS for 10 min, washed three times with 1×PBS, incubated in 10 mM Tris-HCl pH 7.2 for 5 min and then denatured and hybridized with TelC-Cy3 probes as described above. DNA was counterstained with 100 ng/ml DAPI in 0.1 M Tris-HCl pH 7.2, 0.15 M NaCl, 0.08% Tween-20 and coverslips were mounted on slides in Vectashield. […]

U2OS cells [6] = experiment: Telomere FISH combined with EdU detection, RO-3306 control; settings: RO-3306 treatment; to lower extents than FANCM depletion
Protocol: as §1
24 h after siRNA transfection cells were incubated in 10 μM RO-3306 (Selleckchem). 21.5 h later 10 μM EdU (Thermo Fisher Scientific) was added to the culture medium, followed by a 2.5 h incubation. Cells were first stained as for DNA FISH using the TelC-Cy3 probe and then washed twice with 1×PBS followed by EdU detection using the Click-iT EdU Alexa Fluor 488 Imaging Kit (Thermo Fisher Scientific) according to the manufacturer's instructions. DNA was counterstained with 100 ng/ml DAPI in 1×PBS and coverslips were mounted on slides in Vectashield. Image acquisition and analysis were as for DNA FISH.

## NC(=O)NO [HU, hydroxyurea]
HeLa cells [1]
  cell cycle distribution: did not show an altered cell cycle distribution
HeLa cells [2]
  pS33 accumulation: did not promote pS33 accumulation

## CCOC(=O)N1CCN(C(c2ccccn2)c2c(-c3ccccc3)n(O)c3ccccc23)CC1 (centres unmarked) [PIP-199, 4-[(1-Hydroxy-2-phenyl-1H-indol-3-yl)-pyridin-2-yl-methyl]-piperazine-1-carboxylic acid ethyl ester]
[3]
  C-circles: increase in C-circles
[4]; 0-10 μM PIP-199, 11 days, ALT vs telomerase-positive cells
  sensitivity in clonogenic assay (surviving fraction of colonies): hypersensitivity of ALT cells
[4]; normalized to DMSO controls, datapoint exceeding the visible axis of FIG. 11g, cell line not stated
  surviving fraction of colonies: 1.42

## O=C1NC(=NCc2cccs2)S/C1=C\c1ccc2ncccc2c1 [RO-3306]
U2OS interphase cells; 10 μM RO-3306
  number of telomeric foci: less telomeric foci than control cells
U2OS interphase cells; RO-3306-treated
  cells with at least 5 large foci: ~15%
U2OS cells [5]
  number of telomeric PML foci: did not substantially affect
  number of telomeric RAD51 foci: did not substantially affect
U2OS cells [5]; less importantly than FANCM depletion
  number of telomeric POLD3 foci: increased
U2OS cells [6]
  incidence of telomeric EdU foci: increased the incidence of telomeric EdU foci
